Measurements published in patent US20250241996A1, “COMBINATORIAL, AND ROTATIONAL COMBINATORIAL THERAPIES” (Starrock Pharma Inc., priority 2022, published 2025).
“And” between values parts separate entries of the source, which are not always exact repeats. Equal entries are not always repeated. Where two headings read alike, the source gives them in different places.

Assays:
[1] = Side effects and tolerability during the combinatorial weight loss regimen (Example 2)
Experimental: Subjects were seen once weekly for the first 4 weeks, and then once every two weeks, for six visits, for a total of 10 visits over 16 weeks. Vital signs and side effects were assessed at each visit.
Subjects were administered or self-administered the medications in the protocol by the appropriate route (i.e., subcutaneous injection or oral tablet/capsule) for […]. Subjects initially were administered a combination of: 1) a GLP-1 agonist (sold under trademarks Trulicity®, B-cise®, Ozempic®, and Victoza®), 2) Phentermine, 3) Liothyronine, 4) topiramate (sold under the trademark Topamax® carbonic anhydrase inhibitor), and 5) Sermorelin. The starting dosages are listed below in Table 17. The dosages were adjusted throughout the treatment period based on the subject response (i.e., weight loss), tolerability, volume of distribution, subject weight, and at the discretion of the treating physician. For example, the dosage of the GLP-1 agonists Trulicity® and Ozempic® was adjusted depending on the response to the medications. The dosage of the Bydureon BCcise® GLP-1 agonist was not adjusted since it is only produced in a 2 mg injectable dose. Phentermine was increased depending on subject response, to, for example, one 37.5 mg tablet in the morning and one-half tablet ([…]) at 2 p.m. […] If no progression was noted on the initial medications listed above, then the following medications were added to the protocol: Acarbose, Januvia® dipeptidyl peptidase-4 (DPP-4) inhibitor, Invokana® sodium-glucose co-transporter 2 (SGLT2) inhibitor, and Farxiga® (dapagliflozin) in the dosages listed in Table 17, below. For example, if weight loss progress was slow and a subject was consuming large amounts of carbohydrate-rich foods, the alpha-glucosidase inhibitor, Acarbose, was added to the regimen. […] This was added in addition to medications i-iv and ix, below. The regimen provided a minimum of four medications, and more medications were added and/or the dosages were modified as required in subsequent visits.
In other examples, the regimen began with administration of medications i-iv and ix and other medications were added; additional medications were administered at week 2 or week 7, for example, if the subject was not responding and needed an extra pharmacological ‘push.’
As noted above, the medication dosages were adjusted throughout the treatment period as needed, and as agreed to between the treating physician and the subject. […] For larger subjects (i.e., starting weight over 300 pounds) who were losing less than 6 pounds per week, medication dosages were increased or additional medications were added to the regimen. The hierarchy of decision making included 1) increase the dosage of the medications to the maximum allowable dosage or to the level of tolerability of the medication; and then 2) add a fifth or sixth medication, as needed to increase weight loss.

[2] = cited from earlier work
[3] = cited from earlier work; remark: listed apart in the source
[4] = cited from earlier work; remark: listed apart in the source
[5] = cited from earlier work; remark: listed apart in the source
[6] = after 36 weeks, cited from earlier work

C[C@H]1O[C@H](O[C@H]2[C@H](O)[C@@H](O)[C@@H](O[C@H]3[C@H](O)[C@@H](O)C(O)O[C@@H]3CO)O[C@@H]2CO)[C@H](O)[C@@H](O)[C@@H]1N[C@H]1C=C(CO)[C@@H](O)[C@H](O)[C@H]1O (some centres unmarked) [Acarbose]
Side effect(s) ([1]; subject 4, dosages of Table 24): Mild

Fc1ccccc1Nc1nc2nonc2nc1Nc1ccccc1F [BAM15, (2-fluorophenyl){6-[(2-fluorophenyl)amino](1,2,5-oxadiazolo [3,4e]pyrazin-5-yl)}amine]
diet-induced obesity and insulin resistance ([2]; orally administered, mice): reverses diet-induced obesity and insulin resistance in mice

CC(NC(C)(C)C)C(=O)c1cccc(Cl)c1 (centres unmarked) [Bupropion]
Side effect(s) ([1]; in vivo): None

O=[N+]([O-])c1ccc(O)c([N+](=O)[O-])c1 [DNP, 2,4-dinitrophenol]
toxicity ([3]; tested clinically): limited utility owing to toxicity

CCN(CC)C(C)C(=O)c1ccccc1 (centres unmarked) [Diethylproprion]
Side effect(s) ([1]; subject 2, dosages of Table 20): None

C[C@H]1CNCCc2ccc(Cl)cc21 [Locasarin]
Weight loss ([4]; Duration 56 weeks): 5.8%

O=C1CC[C@@]2(O)[C@H]3Cc4ccc(O)c5c4[C@@]2(CCN3CC2CC2)[C@H]1O5 [Naltrexone]
weight loss in monotherapy ([3]; human, in vivo): does not cause weight loss in monotherapy

CCCCCCCCCCC[C@@H](C[C@@H]1OC(=O)[C@H]1CCCCCC)OC(=O)[C@H](CC(C)C)NC=O [Orlistat]
>%5 (percent of subjects who lost greater than 5%) ([4]; Duration 56 weeks): 48% | >%10 (percent of subjects who lost greater than 10%) ([4]; Duration 56 weeks): 17.9% | Weight loss ([4]; Duration 56 weeks): 6.2% and 4% and 8.5% | participants with 5% and more weight loss ([4]; Duration 56 weeks): 48% | participants with 10% and more weight loss ([4]; Duration 56 weeks): 17.9% | placebo-normalized weight loss ([3]; human, in vivo): ~2.5%

C[C@H]1[C@H](c2ccccc2)OCCN1C [Phendimetrazine]
Side effect(s) ([1]; subject 5, dosages of Table 26): None

CC(C)(N)Cc1ccccc1 [Phentermine]
Side effect(s) ([1]; subject 1, dosages of Table 18): Dry mouth | Side effect(s) ([1]; subject 2, dosages of Table 20): Dry mouth | Side effect(s) ([1]; subject 3, dosages of Table 22): None and Dry mouth | Side effect(s) ([1]; subject 4, dosages of Table 24): None | Side effect(s) ([1]; subject 5, dosages of Table 26): None | >%5 (percent of subjects who lost greater than 5%) ([4]; Duration 12 weeks): 95% | >%10 (percent of subjects who lost greater than 10%) ([4]; Duration 12 weeks): 62.5% | Weight loss ([4]; Duration 12 weeks): 8% and 7% | participants with 5% and more weight loss ([4]; Duration 12 weeks): 95% | participants with 10% and more weight loss ([4]; Duration 12 weeks): 62.5% | Weight loss ([4]; Duration 12 weeks, listed as phentermine): 8% and 7% | Weight loss ([4]; Duration 20 weeks): 9% | Weight loss ([4]; Duration 28 weeks): 6%

Cc1c(C(=O)NN2CCCCC2)nn(-c2ccc(Cl)cc2Cl)c1-c1ccc(Cl)cc1 [Rimonabant]
adverse psychiatric effects ([3]; human, in vivo): discontinued in 2009 due to serious adverse psychiatric effects | placebo-subtracted weight loss ([3]; human, in vivo): 2.6 to 6.3 kg

CCOC[C@@H]1[C@@H](c2ccc(Cl)c(Cl)c2)C[C@@H]2CC[C@H]1N2C [Tesofensine]
decrease of body weight ([3]; phase II study, dose-dependent): 4.4-10.4%

CC1(C)O[C@@H]2[C@@H](CO[C@@]3(COS(N)(=O)=O)OC(C)(C)O[C@@H]23)O1 [Topiramate]
tolerability within the regimen ([1]; in vivo): the least tolerated, and was discontinued in some cases

CC[C@H](C)[C@H](NC(=O)[C@H](Cc1ccccc1)NC(=O)[C@H](CCC(=O)O)NC(=O)[C@H](CCCCNC(=O)COCCOCCNC(=O)COCCOCCNC(=O)CC[C@H](NC(=O)CCCCCCCCCCCCCCCCC(=O)O)C(=O)O)NC(=O)[C@H](C)NC(=O)[C@H](C)NC(=O)[C@H](CCC(N)=O)NC(=O)CNC(=O)[C@H](CCC(=O)O)NC(=O)[C@H](CC(C)C)NC(=O)[C@H](Cc1ccc(O)cc1)NC(=O)[C@H](CO)NC(=O)[C@H](CO)NC(=O)[C@@H](NC(=O)[C@H](CC(=O)O)NC(=O)[C@H](CO)NC(=O)[C@@H](NC(=O)[C@H](Cc1ccccc1)NC(=O)[C@@H](NC(=O)CNC(=O)[C@H](CCC(=O)O)NC(=O)C(C)(C)NC(=O)[C@@H](N)Cc1cnc[nH]1)[C@@H](C)O)[C@@H](C)O)C(C)C)C(=O)N[C@@H](C)C(=O)N[C@@H](Cc1c[nH]c2ccccc12)C(=O)N[C@@H](CC(C)C)C(=O)N[C@H](C(=O)N[C@@H](CCCNC(=N)N)C(=O)NCC(=O)N[C@@H](CCCNC(=N)N)C(=O)NCC(=O)O)C(C)C [semaglutide]
Side effect(s) ([1]; in vivo): constipation

CC[C@H](C)[C@H](NC(=O)[C@H](C)NC(=O)[C@H](CC(=O)O)NC(=O)[C@H](C)NC(=O)[C@@H](N)Cc1ccc(O)cc1)C(=O)N[C@@H](Cc1ccccc1)C(=O)N[C@H](C(=O)N[C@@H](CC(N)=O)C(=O)N[C@@H](CO)C(=O)N[C@@H](Cc1ccc(O)cc1)C(=O)N[C@@H](CCCNC(=N)N)C(=O)N[C@@H](CCCCN)C(=O)N[C@H](C(=O)N[C@@H](CC(C)C)C(=O)NCC(=O)N[C@@H](CCC(N)=O)C(=O)N[C@@H](CC(C)C)C(=O)N[C@@H](CO)C(=O)N[C@@H](C)C(=O)N[C@@H](CCCNC(=N)N)C(=O)N[C@@H](CCCCN)C(=O)N[C@@H](CC(C)C)C(=O)N[C@@H](CC(C)C)C(=O)N[C@@H](CCC(N)=O)C(=O)N[C@@H](CC(=O)O)C(=O)N[C@H](C(=O)N[C@@H](CCSC)C(=O)N[C@@H](CO)C(=O)N[C@@H](CCCNC(=N)N)C(N)=O)[C@@H](C)CC)C(C)C)[C@@H](C)O [sermorelin]
Side effect(s) ([1]; in vivo): None

Novo Nordisk Wegovy ™ semaglutide weight loss medication
12 weeks % weight change ([5]; Wegovy Study 1, baseline mean body weight 105.4 kg): −6% | 36 weeks % weight change ([5]; Wegovy Study 1): −12% | 12 weeks % weight change ([5]; Wegovy Study 2, baseline mean body weight 99.9 kg): −4.5% | 36 weeks % weight change ([5]; Wegovy Study 2): −9% | 12 weeks % weight change ([5]; Wegovy Study 3, baseline mean body weight 106.9 kg): −7% | 36 weeks % weight change ([5]; Wegovy Study 3): −13% | 12 weeks % weight change ([5]; Wegovy Study 4, baseline mean body weight 107.2 kg): −5.5% | 36 weeks % weight change ([5]; Wegovy Study 4): −12%

dulaglutide
Side effect(s) ([1]; in vivo): constipation | average weight lost ([6]; 1.5 mg once weekly with ≥1500 mg/day metformin): 6.6 pounds | average weight lost ([6]; 3.0 mg once weekly with ≥1500 mg/day metformin): 8.4 pounds | average weight lost ([6]; 4.5 mg once weekly with ≥1500 mg/day metformin): 1.1 pounds

leptin: 167 amino acid hormone (SEQ ID NO:3)
lowering of body weight by supplementation ([3]; obese individuals): has not been shown to be effective to lower body weight in obese individuals

B1: recombinant GDF15: Macrophage inhibitory cytokine 1 (SEQ ID NO:33) (protein, listed as Homo sapiens)
chain: MPGQELRTVNGSQMLLVLLVLSWLPHGGALSLAEASRASFPGPSELHSEDSRFRELRKRYEDLLTRLRANQSWEDSNTDLVPAPAVRILTPEVRLGSGGHLHLRISRAALPEGLPEASRLHRALFRLSPTASRSWDVTRPLRRQLSLARPQAPALHLRLSPPPSQSDQLLAESSSARPQLELHLRPQAARGRRRARARNGDHCPLGPGRCCRLHTVRASLEDLGWADWVLSPREVQVTMCIGACPSQFRAANMHAQIKTSLHRLKPDTVPAPCCVPASYNPMVLIQKTDTGVSLQTYDDLLAKDCHCI
modifications: Macrophage inhibitory cytokine 1 (MIC1 or GDF15)
body weight ([2]; exogenous administration, diet-induced obese mice and non-human primates): decreases body weight in diet-induced obese mice and non-human primates
